From US6277825A (priority 1999, dated 2001)
Where “and” joins values, the source holds several entries; their conditions need not be identical. Identical values can stand only once.

Assays:
CF #1 Mice = system: CF #1 Mice; design: TD50: unit not given beside the values; conditions: mouse, in vivo
[1] = system: Frings audiogenic seizure-susceptible mice; conditions: mouse, in vivo
NR1-1b/NR2B NMDA subtype = biological target: T1, NR1-1b/NR2B NMDA subtype (Homo sapiens, UniProt Q05586+Q13224); experiment: cell-based
T1 construct: expressed in transfected cells; host or cells: oocytes

CF No. 1 mice = conditions: mouse, in vivo
[2] = system: young (<2 weeks old) mice; assay type: in vivo; conditions: mouse, in vivo
[3] = system: young (<2 weeks old) mice; assay type: in vivo; conditions: mouse, in vivo; remark: listed apart in the source
[4] = system: young (<2 weeks old) mice; assay type: in vivo; conditions: mouse, in vivo; remark: listed apart in the source

T1 sequence (Q13224 27-1484, other chains not shown): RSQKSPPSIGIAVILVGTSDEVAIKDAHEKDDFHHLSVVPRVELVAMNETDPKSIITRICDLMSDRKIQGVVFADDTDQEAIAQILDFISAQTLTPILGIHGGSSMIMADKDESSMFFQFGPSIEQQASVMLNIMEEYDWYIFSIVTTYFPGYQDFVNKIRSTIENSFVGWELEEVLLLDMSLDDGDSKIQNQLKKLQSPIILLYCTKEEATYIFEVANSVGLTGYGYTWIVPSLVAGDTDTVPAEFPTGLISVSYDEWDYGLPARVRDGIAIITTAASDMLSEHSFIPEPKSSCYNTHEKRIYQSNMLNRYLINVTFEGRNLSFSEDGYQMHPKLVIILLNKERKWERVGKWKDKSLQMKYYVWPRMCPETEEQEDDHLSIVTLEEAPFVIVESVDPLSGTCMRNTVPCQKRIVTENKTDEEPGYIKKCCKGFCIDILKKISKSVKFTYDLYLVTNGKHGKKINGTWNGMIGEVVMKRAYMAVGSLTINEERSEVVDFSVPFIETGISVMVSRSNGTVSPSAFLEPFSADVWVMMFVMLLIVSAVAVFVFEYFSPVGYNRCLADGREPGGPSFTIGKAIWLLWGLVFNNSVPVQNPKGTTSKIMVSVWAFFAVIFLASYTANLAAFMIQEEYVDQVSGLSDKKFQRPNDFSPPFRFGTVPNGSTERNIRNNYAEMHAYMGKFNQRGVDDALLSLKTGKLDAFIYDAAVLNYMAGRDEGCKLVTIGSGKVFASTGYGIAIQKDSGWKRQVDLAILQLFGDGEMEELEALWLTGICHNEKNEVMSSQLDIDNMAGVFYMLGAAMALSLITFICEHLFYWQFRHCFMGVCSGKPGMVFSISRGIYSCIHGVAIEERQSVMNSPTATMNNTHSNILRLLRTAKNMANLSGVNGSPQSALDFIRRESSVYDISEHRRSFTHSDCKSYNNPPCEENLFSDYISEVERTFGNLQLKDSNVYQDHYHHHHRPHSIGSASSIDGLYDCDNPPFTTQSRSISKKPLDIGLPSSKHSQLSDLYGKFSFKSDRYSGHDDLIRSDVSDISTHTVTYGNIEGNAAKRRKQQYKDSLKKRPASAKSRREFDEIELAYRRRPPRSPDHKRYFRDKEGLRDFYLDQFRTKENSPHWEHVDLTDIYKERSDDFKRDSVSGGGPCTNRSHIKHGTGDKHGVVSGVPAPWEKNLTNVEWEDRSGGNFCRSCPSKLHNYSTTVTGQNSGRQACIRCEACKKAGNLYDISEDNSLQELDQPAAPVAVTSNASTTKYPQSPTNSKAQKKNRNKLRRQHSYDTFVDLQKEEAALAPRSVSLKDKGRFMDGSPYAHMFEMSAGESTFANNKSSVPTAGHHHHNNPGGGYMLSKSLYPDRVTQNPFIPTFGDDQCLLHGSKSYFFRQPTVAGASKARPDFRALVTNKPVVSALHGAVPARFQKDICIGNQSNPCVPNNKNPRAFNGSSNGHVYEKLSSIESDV

Compound	anticonvulsant activity (CF No. 1 mice)	Righting Reflex, mice that lost reflex/tested [2]	Catalepsy Test, positive mice/tested [3]	Sleepy Test, positive mice/tested [4]	other results
CC[C@H](C)[C@H](NC(=O)[C@H](CC(N)=O)NC(=O)[C@H](CC(C(=O)O)C(=O)O)NC(=O)[C@H](CCCNC(=N)N)NC(=O)[C@H](C)NC(=O)[C@H](CC(C)C)NC(=O)[C@H](CC(C(=O)O)C(=O)O)NC(=O)[C@H](C)NC(=O)[C@H](C)NC(=O)[C@H](CCSC)NC(=O)[C@H](CCCCN)NC(=O)[C@H](C)NC(=O)[C@@H](NC(=O)[C@H](CC(C(=O)O)C(=O)O)NC(=O)[C@H](CC(C(=O)O)C(=O)O)NC(=O)[C@H](CCC(=O)O)NC(=O)CN)C(C)C)C(=O)N[C@@H](C)C(=O)N[C@@H](CCCCN)C(=O)NCC(=O)N[C@H]1CSSC[C@@H](C(=O)N[C@@H](Cc2ccc(O)cc2)C(=O)N2CCC[C@H]2C(=O)O)NC(=O)[C@H](CC(N)=O)NC(=O)[C@H](C(C)C)NC(=O)[C@H](CCCCN)NC1=O [Con R, Conantokin R]					P.I. (TD50/ED50) (CF #1 Mice): 3.6; TD50 (CF #1 Mice): ~ 0.300; P.I. (TD50/ED50) [1]: 17; Protective Index, PI (TD50/ED50) [1]: 18; TD50 [1]: 0.228; protective index relative to that of valproic acid [1]: at least eight times better; Ki (NR1-1b/NR2B NMDA subtype): 140 nM; inhibition at 3 µM (NR1-1b/NR2B NMDA subtype; read-out: inhibition of the current produced in response to glutamate and glycine): ~95%
Conantokin Ca2 [Con Ca2]	anticonvulsant activity				
Conantokin Gm [Con Gm]	anticonvulsant activity				
Conantokin L [Con L]	anticonvulsant activity	2/4 and 3/4	4/4 and 3/4	4/4	
Conantokin Oc [Con Oc]		0/3	0/3	2/3 and 0/3	
Conantokin Qu [Con Qu]	anticonvulsant activity				
